Experimental data published in PubChem BioAssay AID179 (DTP/NCI, 2004).
pEC50, pIC50: −log10 of the molar value. Several values for one entry are separate records, joined by “and”; a condition that tells them apart may be missing. Equal values may be shown once. Activity calls are given as the source filed them.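 The calls were made as follows: active = compounds giving half or more protection of infected cells from virus-caused growth loss, again on retest; inactive = the rest.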

Tested on: CEM cells HIV-1 protection, formazan growth assay
Assay: NCI AIDS Antiviral Assay
Settings: for pIC50: measured here: growth of uninfected CEM cells
Procedure, shortened: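 Screen of anti-HIV-1 activity in human CEM cells using a formazan-based growth measurement at five drug concentrations. Hits with 50% or greater protection were repeated, and confirmation required reproducible complete protection.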

| SMILES | pEC50 | pIC50 | outcome |
| --- | --- | --- | --- |
| COC(=O)C1C2c3ccccc3-c3ccccc3C2(OC(C)=O)[C@@]1(Cl)C(=O)OC (stereo partly drawn) | < 4.36 | 5.18 | – |
| O=C(NCCCCCCNC(=O)n1cc(F)c(=O)[nH]c1=O)NCCCOCCOCCOCCOCCOCCOCCOCCOCCOCCOCCOCCOCCOCCOCCOCCOCCOCCOCCOCCOCCOCCCNC(=O)C(O)C(O)C(OC1OC(CO)C(O)C(O)C1O)C(O)CO (stereo not drawn) | – | – | inactive |
| O=C(O)C(C(F)(F)F)C(F)(F)F (tested in a mixture with another compound) | < 3.70 | < 3.70 | – |
| CCCCCCCCCCCCSS(=O)(=O)c1ccccc1 | < 4.12 | < 4.12 | – |
| COc1ccc(NC(=O)/C(=N\NC(=O)C[n+]2ccccc2)c2c(O)c3ccc(O)cc3oc2=O)c([N+](=O)[O-])c1 | < 3.36 | 4.14 | – |
| CCOP(=O)(CCC(O)CNc1nc(N)nc(Cl)c1N=Nc1ccc(Cl)cc1)OCC (stereo not drawn) | < 3.70 | 5.19 | – |
| S=C1NCCN1C(=S)NC1CCCCC1 | 4.65 | < 4.00 | – |
| CC(C)OP(=O)(OC(C)C)C(C(C)C)N(C)C(N)=NC#N (stereo not drawn) | < 3.70 | < 3.70 | – |
| C=C1CC(Cn2cc(Br)c(=O)[nH]c2=O)(c2ccc(-c3ccccc3)cc2)OC1=O (stereo not drawn) | < 4.70 | 6.34 | – |
| Cc1nc2ccccc2c(=O)n1NC(=O)c1ccc(N)cc1 | < 3.70 | < 3.70 | – |
| Oc1cc(F)cc2cccnc12 | – | – | inactive |
| N/N=C(N)/C(N)=N/N | – | – | inactive |
| N[C@H](CCOc1ccc(/C(=N/O)C(=O)N[C@H]2CN([C@@H](C(=O)O)c3ccc(O)cc3)C2=O)cc1)C(=O)O | < 3.70 | < 3.70 | – |
| CC12CCC(=O)C[C@H]1CCC(OC=O)C2Br (stereo partly drawn) | – | – | inactive |
| CC(CN1CCN(CC(C)Nc2ccnc3cc(Cl)ccc23)CC1)Nc1ccnc2cc(Cl)ccc12 (stereo not drawn) | < 4.30 | < 4.30 | – |
| Cc1ccc2oc(=O)c(C#N)c(/C=C\c3ccccc3O)c2c1 | < 4.00 | 5.25 | – |
| COc1cc(N2C(=O)C(=O)C3(CCCCC3)C2=O)cc(OC)c1OC | < 3.70 | < 3.70 | – |
| C[C@H](NC(=O)c1ccccc1SC(=O)NCCCCl)C(N)=O | 5.44 | 4.35 | – |
| CC1(CCCO)CCCCCCCCCC(C)(CCCO)C1=O (stereo not drawn) | < 3.70 | 3.94 | – |
| N#Cc1c(-c2ccccc2)c(C#N)c(=O)n(C2OC(CO)C(O)C(O)C2O)c1S (stereo not drawn) | < 3.70 | < 3.70 and 3.85 | – |
| Cc1cn(C2CC(N=[N+]=[N-])C(COC(=O)CCOCCCCCCCCCl)O2)c(=O)[nH]c1=O (stereo not drawn) | 8.16 | 4.70 | – |

| SMILES | pEC50 | pIC50 | outcome |
| --- | --- | --- | --- |
| FC(F)(F)c1cccc(N(c2nc(Cl)nc(Cl)n2)c2nc(Cl)nc(Cl)n2)c1 | < 3.70 | < 3.70 | – |
| CN(c1ccccc1)S(=O)(=O)c1ccccc1[N+](=O)[O-] | < 3.70 | 4.19 | – |
| C=C1C=CN(C(C)=O)C(OC(C)=O)C1SC(C)(C)C (stereo not drawn) | < 3.70 | 4.24 | – |
| CC(C)CCC[C@@H](C)[C@H]1CC[C@H]2[C@@H]3CC[C@H]4C[C@@H](CCC=C(c5cc(Cl)c(OCc6ccccc6C(=O)O)c(C(=O)O)c5)c5cc(Cl)c(OCc6ccccc6C(=O)O)c(C(=O)O)c5)CC[C@]4(C)[C@H]3CC[C@]12C | 4.17 | < 3.70 | – |
| O=C(O)C1CCC(c2ccc(Oc3ccccc3)cc2)=N1 (stereo not drawn) | < 3.70 | < 3.70 | – |
| C[CH2][Sn]([CH2]C)([O]C(=O)c1cccc(F)c1)[O][Sn]([CH2]C)([CH2]C)[O]C(=O)c1cccc(F)c1 | < 5.23 | < 5.23 | – |
| c1cncc(C2(c3cc4ccccc4[nH]3)COCO2)c1 (stereo not drawn) | < 3.70 | 3.90 | – |
| CC(C)c1cccc(C(C)C)c1O | < 3.70 | < 3.70 | – |
| COc1cc2c(c3c1[C@@H](O)[C@H](C)[C@@H](C)O3)C=CC(C)(C)O2 | < 3.70 | 4.10 | – |
| O=C(N(O)c1ccccc1Cl)C(O)(c1ccccc1)c1ccccc1 | < 4.70 | < 4.70 | – |
| O=[N+]([O-])c1cccc(C2=NOC3C4CCC(C4)C23)c1 (stereo not drawn) | 6.87 | 4.18 | – |
| CCCCN(C)C(=O)COc1cc2c(O)c3c(O)c(C)c4c(c13)C(=O)C(C)(O/C=C/C(OC)C(C)C(OC(C)=O)C(C)C(O)C(C)C(O)C(C)/C=C/C=C(\C)C(=O)N2)O4 (stereo not drawn) | 4.55 | 4.54 | – |
| CC(=O)OCC1OC(n2cc(C(F)(F)F)c(=O)[nH]c2=O)CC1OC(C)=O (stereo not drawn) | < 3.70 | 5.61 | – |
| O=C(/C=C/c1ccc(Cl)c(Cl)c1)c1cccc2ccccc12 | < 5.50 | < 5.50 | – |
| N#CC1Nc2ccccc2[C@@H](O)C1O (stereo partly drawn) | < 2.88 | 3.62 | – |
| C=C1c2nc3ccccc3n2C=C(c2ccc(Cl)cc2)N1c1ccccc1 | < 3.70 | 4.02 | – |
| CC1C2C=CC1C(c1c3ccc(=O)cc-3oc3cc(O)ccc13)C2C(=O)O (stereo not drawn) | 5.62 | 4.29 | – |
| Cc1ccc(NC(=O)CC/C(CC(=O)C(C)(C)C)=N/Nc2nnc(C)n2N)cc1C | < 4.06 | < 4.06 | – |
| Oc1ccc(N=C2CCC(=C(c3ccccc3)c3ccc(Nc4ccc(O)cc4)cc3)CC2)cc1 | < 3.70 | 4.68 | – |
| CC(=O)Nc1n[n+]([O-])c2cc(C)ccc2[n+]1[O-] | < 3.70 | 6.02 | – |
